# Data: EP1229025A1, “NOVEL QUINAZOLINE DERIVATIVES” (Japan Energy Corporation, priority 1999, dated 2001)
# System: TNF-α production
# Assay: TNF-α production inhibiting test using human PBMC (LPS stimulus, ELISA)
# Format: cell-based
# Conditions: LPS 10 ng/ml, 16 hours, ELISA of culture supernatants
# Description: Example 145: TNF-α production inhibiting test using human PBMC (peripheral blood mononuclear cells)
# Preparation of human PBMC
# The blood of a healthy person was taken with a vacuum blood-collecting tube (Nipro neotube) and diluted up to two-fold with physiological saline (Otsuka Pharmaceuticals). To the diluted blood was added 6% dextran T-500 (prepared after dissolution in physiological saline (Otsuka Pharmaceuticals) and sterilization with an autoclave) so as to make a final concentration of 1%. The solution was subjected to tumble mixing and allowed to stand at room temperature for 30 minutes to precipitate the erythrocytes. The supernatant was collected and subjected to centrifugation at 20 °C and at 1,500 rpm for 10 minutes. The cells were suspended in 3 ml of RPMI1640 culture medium (Asahi Technogllas) and overlaid on the solution surface of 3 ml Lymphoprep (NYCOMED). Further, with 1.5 ml of RPMI1640 culture medium being added to the tube which had contained the cell suspension liquid, the cells attached to the tube, which had remained uncollected, were suspended for collection and overlaid on the Lymphoprep previously mentioned. This operation was repeated again. After centrifugation at 20 °C and at 2,000 rpm for 30 minutes, there was collected a fraction of peripheral blood mononuclear cells present in the boundary surface between the Lymphoprep and the RPMI1640 culture medium. The cells were washed twice with 10 ml RPMI1640 culture medium to remove the Lymphoprep and then suspended in a RPMI1640 culture medium added with 10% bovine fetal serum (IRVINE SCIENTIFIC), 100 U/ml penicillin and 100 µg/ml streptomycin (hereinafter referred to as cRPMI1640 culture medium). The number of the cells was measured by Tuerk dying, and the cells, after adjustment to 3 × 10^6 cells/ml, were planted in 100 µl/well on a 96-well plate (FALCON). The cells were cultured at 37 °C under 5%CO2 atmosphere for about 5 hours.
# Induction of TNF-α production by LPS stimulus
# LPS (E.coli 0111:B4, DIFCO), which had been prepared to 10 mg/ml with water and kept at -20, was diluted to 100 µg/ml with cRPMI1640 culture medium and subjected to sterile filtration. The 100 µg/ml LPS was diluted with cRPMI1640 culture medium to prepare 20 ng/ml LPS. A compound to be tested which was dissolved in DMSO at 1,000-fold concentration was diluted to 500-fold with cRPMI1640 culture medium containing 20 ng/ml LPS and added in 100 µl/well to the cells which had been planted on the previously mentioned 96-well plate (final concentration of LPS: 10 ng/ml). For use as the control group, the solutions were made by diluting DMSO of the same volume as in the test compounds with cRPMI1640 culture medium containing 20 ng/ml LPS, and they were added to the cells. These cells were cultured at 37 °C under 5%CO2 atmosphere for 16 hours.
# Determination of TNF-α activity (ELISA method)
# To the 96-well plate the mouse anti-human TNF-α antibody (prepared to 2 µg/ml with Coating buffer*^1) was added so as to make 100 µl/well and allowed to stand at 4 °C overnight. After 5-times washing with Wash buffer*^2 (300µl/well), the Blocking buffer*^3 was added to the solutions, which were allowed to stand 37 °C for 2 hours. The culture supernatants were diluted up to 5-fold in the plate (supernatant 20 µl being added to 80 µl of cRPMI1640 culture medium). Simultaneously, for using for a calibration curve, a series of dilution of recombinant human TNF-α was prepared arid allowed to stand 37 °C for 1 hour. After 5-times washing with Wash buffer (300 µl /well), biotinylated rabbit anti-human TNF-α antibody (prepared to 0.25 µg/ml with Antibody diluent*^4) was added so as to make 100 µl /well and allowed to stand at 37 °C for 1 hour. After 5-times washing with Wash buffer (300 µl /well), Streptavidin-Horseradish peroxidase(prepared to 1:4000 with Antibody diluent) was added to make 100 µl /well and allowed to stand at 37 °C for 15 minutes. […]
row,IC50,Compound
1,6.4 µM,"O=[N+]([O-])c1cc2c(NC3CCN(Cc4ccccc4)CC3)ncnc2cc1N1CCNCC1 [Example 86, 4-[(1-benzyl-4-piperidyl)amino]-6-nitro-7-(piperazin-1-yl)quinazoline]"
2,0.7 µM,"COc1cccc(CNc2ncnc3cc(N4CCNCC4)c([N+](=O)[O-])cc23)c1 [Example 66, 4-(3-methoxylbenzylamino)-6-nitro-7-(piperazin-1-yl)quinazoline]"
3,2.5 µM,"Nc1ccc(CCNc2ncnc3cc(N4CCNCC4)c([N+](=O)[O-])cc23)cc1 [Example 81, 4-[2-(4-anilino)ethylamino]-6-nitro-7-(piperazin-1-yl)quinazoline]"
4,2.3 µM,"COc1ccc(CCNc2ncnc3cc(N4CCNCC4)c([N+](=O)[O-])cc23)cc1OC [Example 79, 4-[2-(3,4-dimethoxyphenyl)ethylamino]-6-nitro-7-(piperazin-1-yl)quinazoline]"
5,1.4 µM,"NC1CCN(c2cc3ncnc(NCCc4ccc(Cl)cc4)c3cc2[N+](=O)[O-])CC1 [Example 8, 7-(4-aminopiperidin-1-yl)-4-[2-(4-chlorophenyl)ethylamino]-6-nitroquinazoline]"
6,0.6 µM,"O=[N+]([O-])c1cc2c(NCCc3ccc(F)cc3)ncnc2cc1N1CCNCC1 [Example 37, 4-[2-(4-fluorophenyl)ethylamino]-6-nitro-7-(piperazin-1-yl)quinazoline]"
7,1.1 µM,"O=[N+]([O-])c1cc2c(NCCc3ccccn3)ncnc2cc1N1CCNCC1 [Example 56, 6-nitro-7-(piperazin-1-yl)-4-[2-(2-pyridyl)ethylamino]quinazoline]"
8,2.4 µM,"COc1ccc(CNc2ncnc3cc(N4CCNCC4)c([N+](=O)[O-])cc23)cc1OC [Example 68, 4-(3,4-dimethoxylbenzylamino)-6-nitro-7-(piperazin-1-yl)quinazoline]"
9,0.9 µM,"COc1ccc(N2CCN(c3ncnc4cc(N5CCNCC5)c([N+](=O)[O-])cc34)CC2)cc1 [Example 99, 4-[(4-methoxyphenyl)piperazinyl]-6-nitro-7-piperazinylquinazoline]"
10,1.1 µM,"COc1ccc(CCNc2ncnc3cc(N4CCNCC4)c([N+](=O)[O-])cc23)cc1 [Example 78, 4-[2-(4-methoxyphenyl)ethylamino]-6-nitro-7-(piperazin-1-yl)quinazoline]"
11,0.7 µM,"O=[N+]([O-])c1cc2c(NCc3ccc(F)c(F)c3)ncnc2cc1N1CCNCC1 [Example 128, 4-[(3,4-difluoro)benzylamino]-6-nitro-7-(piperazin-1-yl)quinazoline]"
12,0.7 µM,"O=[N+]([O-])c1cc2c(NCCCc3ccc(F)cc3)ncnc2cc1N1CCNCC1 [Example 126, 4-[3-[(4-fluoro)phenyl]propylamino]-6-nitro-7-(piperazin-1-yl)quinazoline]"
13,0.6 µM,"Fc1cc2c(NCc3ccc4c(c3)OCO4)ncnc2cc1N1CCNCC1 [Example 114, 6-fluoro-4-[3,4-(methylenedioxy)benzylamino]-7-(piperazin-1-yl)quinazoline]"
14,0.6 µM,"O=[N+]([O-])c1cc2c(NCCc3cccc(Cl)c3)ncnc2cc1N1CCNCC1 [Example 71, 4-[2-(3-chlorophenyl)ethylamino]-6-nitro-7-(piperazin-1-yl)quinazoline]"
15,0.5 µM,"O=[N+]([O-])c1cc2c(NCc3cccc4ccccc34)ncnc2cc1N1CCNCC1 [Example 59, 4-[(1-naphthyl)methylamino]-6-nitro-7-(piperazin-1-yl)quinazoline]"
16,0.6 µM,"O=[N+]([O-])c1cc2c(NCc3ccc(Cl)cc3)ncnc2cc1N1CCNCC1 [Example 60, 4-(4-chlorobenzylamino)-6-nitro-7-(piperazin-1-yl)quinazoline]"
17,2.2 µM,"Fc1cc2c(NCCc3ccc4c(c3)OCO4)ncnc2cc1N1CCNCC1 [Example 118, 6-fluoro-4-[2-[(3,4-methylenedioxy)phenyl]ethylamino]-7-(piperazin-1-yl)quinazoline]"
18,2.5 µM,"O=[N+]([O-])c1cc2c(NCc3ccc4c(c3)OCCO4)ncnc2cc1N1CCNCC1 [Example 130, 4-[(3,4-ethylenedioxy)benzylamino]-6-nitro-7-(piperazin-1-yl)quinazoline]"
19,2.5 µM,"O=CN1CCN(c2cc3ncnc(NCCc4ccc(Cl)cc4)c3cc2[N+](=O)[O-])CC1 [Example 6, 4-[2-(4-chlorophenyl)ethylamino]-7-(4-formylpiperazin-1-yl)-6-nitroquinazoline]"
20,2.5 µM,"Fc1cc2c(NCc3ccc4c(c3)OCCO4)ncnc2cc1N1CCNCC1 [Example 121, 4-[(3,4-ethylenedioxy)benzylamino]-6-fluoro-7-(piperazin-1-yl)quinazoline]"
21,1.2 µM,"COc1ccccc1CNc1ncnc2cc(N3CCNCC3)c([N+](=O)[O-])cc12 [Example 65, 4-(2-methoxylbenzylamino)-6-nitro-7-(piperazin-1-yl)quinazoline]"
22,1.8 µM,"COc1cc(CNc2ncnc3cc(N4CCNCC4)c([N+](=O)[O-])cc23)cc(OC)c1OC [Example 69, 6-nitro-7-(piperazin-1-yl)-4-(3,4,5-trimethoxylbenzylamino)quinazoline]"
23,0.4 µM,"O=[N+]([O-])c1cc2c(NCCc3ccccc3)ncnc2cc1N1CCNCC1 [Example 10, 6-nitro-4-[2-(phenyl)ethylamino]-7-(piperazin-1-yl)quinazoline]"
24,0.4 µM,"O=[N+]([O-])c1cc2c(NCCCc3ccccc3)ncnc2cc1N1CCNCC1 [Example 54, 6-nitro-4-[3-(phenyl)propylamino]-7-(piperazin-1-yl)quinazoline]"
25,2.3 µM,"O=[N+]([O-])c1cc2c(NCCc3cccnc3)ncnc2cc1N1CCNCC1 [Example 57, 6-nitro-7-(piperazin-1-yl)-4-[2-(3-pyridyl)ethylamino]quinazoline]"
26,0.6 µM,"CN(Cc1ccc2c(c1)OCO2)c1ncnc2cc(N3CCNCC3)c(F)cc12 [Example 122, 6-fluoro-4-[[N-methyl-N'-(3,4-methylenedioxybenzyl)]amino]-7-(piperazin-1-yl)quinazoline]"
27,0.6 µM,"O=[N+]([O-])c1cc2c(Nc3ccc(F)cc3)ncnc2cc1N1CCNCC1 [Example 123, 4-[(4-fluoro)anilino]-6-nitro-7-(piperazin-1-yl)quinazoline]"
28,2.3 µM,"Fc1ccc(CCCNc2ncnc3cc(N4CCNCC4)c(F)cc23)cc1 [Example 119, 6-fluoro-4-[3-[(4-fluoro)phenyl]propylamino]-7-(piperazin-1-yl)quinazoline]"
29,1.3 µM,"NCC1CCN(c2cc3ncnc(NCCc4ccc(Cl)cc4)c3cc2[N+](=O)[O-])CC1 [Example 9, 7-(4-aminomethylpiperidin-1-yl)-4-[2-(4-chlorophenyl)ethylamino]-6-nitroquinazoline]"
30,2.5 µM,"O=[N+]([O-])c1cc2c(NCCc3ccc(O)cc3)ncnc2cc1N1CCNCC1 [Example 80, 4-[2-(4-hydroxyphenyl)ethylamino]-6-nitro-7-(piperazin-1-yl)quinazoline]"

row,Compound,IC50
1,"Fc1ccc(CCNc2ncnc3cc(N4CCNCC4)c(F)cc23)cc1 [Example 117, 6-fluoro-4-[2-[(4-fluoro)phenyl]ethylamino]-7-(piperazin-1-yl)quinazoline]",4.7 µM
2,"Fc1cc2c(Nc3ccc4c(c3)OCO4)ncnc2cc1N1CCNCC1 [Example 116, 6-fluoro-4-[(3,4-methylenedioxy)anilino]-7-(piperazin-1-yl)quinazoline]",3 µM
3,"O=[N+]([O-])c1cc2c(NCc3ccc(C(F)(F)F)cc3)ncnc2cc1N1CCNCC1 [Example 63, 6-nitro-7-(piperazin-1-yl)-4-[4-(1,1,1-trifluoiomethyl)benzylamino]quinazoline]",1.6 µM
